Literature values, collected in EP1337618B1, “CLEANING TABLETS” (UNILEVER N.V., priority 2000, dated 2002).
Read-outs that look alike come from different tables or passages of the source.

[1] = at 20°C, other common materials

| solubility in water (at 20°C) | Water Solubility (deionised water at 20°C, highly water-soluble materials) [g/100g] | Compound | Water Solubility [1] [g/100g] |
| --- | --- | --- | --- |
| exceeding 100 gms per 100ml water | >100 | NC(N)=O [Urea] | – |
| – | – | O=BO[O-].[Na+] [Sodium perborate anhydrous] | 3.7 |
| – | – | O=P(O)(O)OP(=O)(O)OP(=O)(O)O [Sodium tripolyphosphate anhydrous] | 15 |
